# According to ChEMBL document CHEMBL2069302, “Nortriterpene glycosides of the sarasinoside class from the sponge Lipastrotethya sp” (J Nat Prod, 2012):
# Experiments:
# K562 = test: Cytotoxicity against human K562 cells; format: functional; details: read-out: LC50 (the source's name)
# A549 = test: Cytotoxicity against human A549 cells; format: functional; details: read-out: LC50 (the source's name)
# [1] = target: Sodium/potassium-transporting ATPase; test: Inhibition of Sodium/potassium-transporting ATPase; format: protein-complex assay, Homo sapiens
SMILES,CC50 (K562),CC50 (A549),IC50 [1]
CC(=O)N[C@H]1[C@H](O[C@H]2[C@H](O[C@H]3CC[C@]4(C)C5=C(CC[C@H]4C3(C)C)[C@@H]3CC[C@H]([C@H](C)CC(=O)C=C(C)C)[C@@]3(C)CC5)OC[C@@H](O)[C@@H]2O)O[C@H](CO[C@@H]2O[C@H](CO)[C@@H](O)[C@H](O)[C@H]2O[C@@H]2O[C@H](CO)[C@@H](O)[C@H](O)[C@H]2O)[C@@H](O)[C@@H]1O,18.7 µM,9.1 µM,54.7 µM
CC(C)=CC(=O)C[C@@H](C)[C@H]1CCC2=C3CC[C@H]4C(C)(C)[C@@H](O)CC[C@]4(C)[C@H]3CC[C@@]21C,69.4 µM,41.6 µM,> 234 µM
CC(=O)N[C@H]1[C@H](O[C@@H]2CO[C@@H](O[C@H]3CC[C@]4(C)C5=C(CC[C@H]4C3(C)C)[C@@H]3CC[C@H]([C@H](C)CC(=O)C=C(C)C)[C@@]3(C)CC5)[C@H](O[C@@H]3O[C@H](CO)[C@@H](O)[C@H](O)[C@H]3NC(C)=O)[C@H]2O)O[C@H](CO)[C@H](O)[C@@H]1O (relative stereo),20.2 µM,10.7 µM,56.1 µM
COc1cccc2c1C(=O)c1c(O)c3c(c(O)c1C2=O)C[C@@](O)(C(=O)CO)C[C@@H]3O[C@H]1C[C@H](N)[C@H](O)[C@H](C)O1 [DOXORUBICIN],4.7 µM,1.7 µM,–
CC(=O)N[C@H]1[C@H](O[C@@H]2CO[C@@H](O[C@H]3CC[C@]4(C)C5=C(CC[C@H]4C3(C)C)[C@@H]3CC[C@H]([C@H](C)CC(=O)C=C(C)C)[C@@]3(C)CC5)[C@H](O[C@@H]3O[C@H](CO[C@@H]4O[C@H](CO)[C@@H](O)[C@H](O)[C@H]4O[C@@H]4O[C@H](CO)[C@@H](O)[C@H](O)[C@H]4O)[C@@H](O)[C@H](O)[C@H]3NC(C)=O)[C@H]2O)O[C@H](CO)[C@H](O)[C@@H]1O [SARASINOSIDE A1],7.4 µM,7.6 µM,46.5 µM
CC(=O)N[C@H]1[C@H](O[C@@H]2CO[C@@H](O[C@H]3CC[C@]4(C)C5=CC[C@]6(C)[C@@H]([C@H](C)CC(=O)C=C(C)C)CC[C@H]6C5=CC[C@H]4C3(C)C)[C@H](O[C@@H]3O[C@H](CO[C@@H]4O[C@H](CO)[C@@H](O)[C@H](O)[C@H]4O[C@@H]4O[C@H](CO)[C@@H](O)[C@H](O)[C@H]4O)[C@@H](O)[C@H](O)[C@H]3NC(C)=O)[C@H]2O)O[C@H](CO)[C@H](O)[C@@H]1O [SARASINOSIDE A2],8.5 µM,7.6 µM,> 77.7 µM
CC(=O)N[C@H]1[C@H](O[C@@H]2CO[C@@H](O[C@H]3CC[C@]4(C)C5=C(CC[C@H]4C3(C)C)C3=CC[C@H]([C@H](C)CC(=O)C=C(C)C)[C@@]3(C)CC5)[C@H](O[C@@H]3O[C@H](CO[C@@H]4O[C@H](CO)[C@@H](O)[C@H](O)[C@H]4O[C@@H]4O[C@H](CO)[C@@H](O)[C@H](O)[C@H]4O)[C@@H](O)[C@H](O)[C@H]3NC(C)=O)[C@H]2O)O[C@H](CO)[C@H](O)[C@@H]1O [SARASINOSIDE A3],24.8 µM,10.1 µM,> 77.7 µM
CC(=O)N[C@H]1[C@H](O[C@@H]2CO[C@@H](O[C@H]3CC[C@@]4(C)[C@@H](CCC5=C6[C@H](O)C[C@H]([C@H](C)CC(=O)C=C(C)C)[C@@]6(C)CC[C@@]54O)C3(C)C)[C@H](O[C@@H]3O[C@H](CO[C@@H]4O[C@H](CO)[C@@H](O)[C@H](O)[C@H]4O[C@@H]4O[C@H](CO)[C@@H](O)[C@H](O)[C@H]4O)[C@@H](O)[C@H](O)[C@H]3NC(C)=O)[C@H]2O)O[C@H](CO)[C@H](O)[C@@H]1O [SARASINOSIDE H1],37.4 µM,14.2 µM,> 75.7 µM
CO[C@@H]1C[C@H]([C@H](C)CC(=O)C=C(C)C)[C@@]2(C)CC[C@@]3(O)C(=C12)CC[C@H]1C(C)(C)[C@@H](O[C@@H]2OC[C@@H](O[C@@H]4O[C@H](CO)[C@H](O)[C@H](O)[C@H]4NC(C)=O)[C@H](O)[C@H]2O[C@@H]2O[C@H](CO[C@@H]4O[C@H](CO)[C@@H](O)[C@H](O)[C@H]4O[C@@H]4O[C@H](CO)[C@@H](O)[C@H](O)[C@H]4O)[C@@H](O)[C@H](O)[C@H]2NC(C)=O)CC[C@@]13C [SARASINOSIDE H2],42.7 µM,> 100 µM,> 74.9 µM
CC(=O)N[C@H]1[C@H](O[C@@H]2CO[C@@H](O[C@H]3CC[C@]4(C)C5=C(CC[C@H]4C3(C)C)[C@@H]3CC[C@H]([C@H](C)CC(=O)CC(C)(C)O)[C@@]3(C)CC5)[C@H](O[C@@H]3O[C@H](CO[C@@H]4O[C@H](CO)[C@@H](O)[C@H](O)[C@H]4O[C@@H]4O[C@H](CO)[C@@H](O)[C@H](O)[C@H]4O)[C@@H](O)[C@H](O)[C@H]3NC(C)=O)[C@H]2O)O[C@H](CO)[C@H](O)[C@@H]1O [SARASINOSIDE J],20.8 µM,10.3 µM,> 76.5 µM
CC(=O)N[C@H]1[C@H](O[C@@H]2CO[C@@H](O[C@H]3CC[C@]4(C)C5=CC[C@@]6(C)C(=C(CC[C@H]4C3(C)C)O5)CC[C@@H]6[C@H](C)CC(=O)C=C(C)C)[C@H](O[C@@H]3O[C@H](CO[C@@H]4O[C@H](CO)[C@@H](O)[C@H](O)[C@H]4O[C@@H]4O[C@H](CO)[C@@H](O)[C@H](O)[C@H]4O)[C@@H](O)[C@H](O)[C@H]3NC(C)=O)[C@H]2O)O[C@H](CO)[C@H](O)[C@@H]1O [SARASINOSIDE M],12.1 µM,7.7 µM,> 76.7 µM
CC(=O)N[C@H]1[C@H](O[C@@H]2CO[C@@H](O[C@H]3CC[C@]4(C)C5=CC[C@]6(C)[C@@H]([C@H](C)CC(=O)C=C(C)C)CC[C@H]6[C@@]5(O)CC[C@@]4(O)C3(C)C)[C@H](O[C@@H]3O[C@H](CO[C@@H]4O[C@H](CO)[C@@H](O)[C@H](O)[C@H]4O[C@@H]4O[C@H](CO)[C@@H](O)[C@H](O)[C@H]4O)[C@@H](O)[C@H](O)[C@H]3NC(C)=O)[C@H]2O)O[C@H](CO)[C@H](O)[C@@H]1O [SARASINOSIDE O],61.5 µM,54.7 µM,> 75.7 µM
CC(=O)N[C@H]1[C@H](O[C@@H]2CO[C@@H](O[C@H]3CC[C@]4(C)C5=CC[C@]6(C)[C@@H]([C@H](C)CC(=O)C=C(C)C)CC[C@H]6[C@]5(O)CC[C@]4(O)C3(C)C)[C@H](O[C@@H]3O[C@H](CO[C@@H]4O[C@H](CO)[C@@H](O)[C@H](O)[C@H]4O[C@@H]4O[C@H](CO)[C@@H](O)[C@H](O)[C@H]4O)[C@@H](O)[C@H](O)[C@H]3NC(C)=O)[C@H]2O)O[C@H](CO)[C@H](O)[C@@H]1O [SARASINOSIDE P],11.6 µM,17.9 µM,> 75.7 µM
CC(=O)N[C@H]1[C@H](O[C@@H]2CO[C@@H](O[C@H]3CC[C@@]4(C)[C@@H](CCC5=C6CC[C@H]([C@H](C)CC(=O)C=C(C)C)[C@@]6(C)CC[C@@]4(O)O5)C3(C)C)[C@H](O[C@@H]3O[C@H](CO[C@@H]4O[C@H](CO)[C@@H](O)[C@H](O)[C@H]4O[C@@H]4O[C@H](CO)[C@@H](O)[C@H](O)[C@H]4O)[C@@H](O)[C@H](O)[C@H]3NC(C)=O)[C@H]2O)O[C@H](CO)[C@H](O)[C@@H]1O [SARASINOSIDE Q],17.9 µM,14 µM,> 75.7 µM
CC(=O)N[C@H]1[C@H](O[C@@H]2CO[C@@H](O[C@H]3CC[C@@]4(C)[C@@H](CC[C@@]5(O)[C@]4(O)CC=C4[C@@H]([C@H](C)CC(=O)C=C(C)C)CC[C@@]45C)C3(C)C)[C@H](O[C@@H]3O[C@H](CO[C@@H]4O[C@H](CO)[C@@H](O)[C@H](O)[C@H]4O[C@@H]4O[C@H](CO)[C@@H](O)[C@H](O)[C@H]4O)[C@@H](O)[C@H](O)[C@H]3NC(C)=O)[C@H]2O)O[C@H](CO)[C@H](O)[C@@H]1O [SARASINOSIDE R],> 100 µM,14.7 µM,> 75.7 µM
